From paper PMC4768138, “Biliverdin targets enolase and eukaryotic initiation factor 2 (eIF2α) to reduce the growth of intraerythrocytic development of the malaria parasite Plasmodium falciparum” (Scientific Reports, 2016)

B1: Plasmodium falciparum enolase (enzyme, UniProt Q8IJN7 1-446, looked up)
chain: MAHVITRINAREILDSRGNPTVEVDLETNLGIFRAAVPSGASTGIYEALELRDNDKSRYLGKGVQKAIKNINEIIAPKLIGMNCTEQKKIDNLMVEELDGSKNEWGWSKSKLGANAILAISMAVCRAGAAANKVSLYKYLAQLAGKKSDQMVLPVPCLNVINGGSHAGNKLSFQEFMIVPVGAPSFKEALRYGAEVYHTLKSEIKKKYGIDATNVGDEGGFAPNILNANEALDLLVTAIKSAGYEGKVKIAMDVAASEFYNSENKTYDLDFKTPNNDKSLVKTGAQLVDLYIDLVKKYPIVSIEDPFDQDDWENYAKLTAAIGKDVQIVGDDLLVTNPTRITKALEKNACNALLLKVNQIGSITEAIEACLLSQKNNWGVMVSHRSGETEDVFIADLVVALRTGQIKTGAPCRSERNAKYNQLLRIEESLGNNAVFAGEKFRLQLN
notes: Enolase of Plasmodium falciparum, expressed from the P. falciparum enolase-pETTrx-1a plasmid; the abstract calls it recombinant full-length Plasmodium enolase; The His-tag-thioredoxin was removed by TEV protease; also called Pf enolase; P. falciparum enolase; source: E. coli Rosetta (DE3), purified (HisTrap, TEV digestion, second HisTrap, Superdex 200)

Columns and labels:
[1] = target: T1, P. falciparum enolase (Pf enolase) (Plasmodium falciparum, UniProt Q8IJN7); assay: ITC with purified enzyme (n = […], ΔG −[…] Kcal/mol, Kd not given); IC50 from enzyme inhibition assay; format: biochemical
T1 construct: gene ENO; recombinant full-length Plasmodium enolase, expressed in E. coli, His-tag-thioredoxin removed by TEV protease

[2] = target: the molecule itself; assay: SEC; Superdex 200 16/60, 20 mM Tris-HCl pH 8.0, 200 mM NaCl; single symmetric peak of the purified recombinant protein

Molecule | IC50 [1] [µM] | stoichiometry N [2]
C=CC1=C(C)/C(=C/C2=NC(=C\c3[nH]c(/C=C4\NC(=O)C(C)=C4C=C)c(C)c3CCC(=O)O)/C(CCC(=O)O)=C2C)NC1=O [BV, biliverdin] | 27 ± 4 | 
B1 |  | 2
